Where “and” joins values, the source holds several entries; their conditions need not be identical. Equal entries are not always repeated. Where two headings read alike, the source gives them in different places.
Assays:
adenylate cyclase [1] = settings: olfactory cells of rats; Boekhoff et al. 1990; cited from earlier work
[2] = tested on: contact hypersensitivity reaction; experiment: Contact hypersensitivity (CH) reaction induced and provoked with TNCB; perfume inhalation or topical application; format: in vivo, mice
Procedure: Female C57 BL/6 mice (aged 7-9 weeks) were used. Each group of five animals were placed in a cage (225×335×140 mm) and kept in a chamber maintained at a temperature of 21-25° C. and a relative humidity of 40-70%. The inhalation of a perfume into the animals was carried out by placing a Petri dish having a diameter of 10 cm in the cage, putting therein a filter paper impregnated with the perfume, and covering the dish with wire netting. (A filter paper impregnated with no perfume was used for a control group.) This animal experiment followed the National Research Council Guidelines. […] After 5 days (on experimental day 6), a contact hypersensitivity reaction was provoked by applying 5 μl of a 1% acetone solution of the aforesaid antigen to both sides of the right ear of each animal. The contact hypersensitivity (hereinafter referred to as CH) reaction was evaluated by measuring the thickness of the swollen left and right ears on day 7 with a micrometer and calculating the difference between the measured values. In order to examine the effect of perfume inhalation at the time of sensitization, a Petri dish containing a filter paper impregnated with the aforesaid perfume was placed in the cage over a period of time extending from day 0 to day 2. In order to examine the effect of perfume inhalation at the time of immunity provocation, the aforesaid Petri dish was placed in the cage over a period of time extending from day 5 to day 7. In order to examine the effect of the direct application of a perfume to the skin, 50 μl of 0.1% […] or diluent (50% corn oil in acetone) was applied to a region to be sensitized, and the aforesaid antigen was applied thereto after 6 hours. The long-term effect was tested by applying 50 μl of 1% perfume or diluent every day over a period of time extending from day 0 to day 2.

adenylate cyclase [3] = settings: olfactory cells of frogs; Sklar et al. 1986; cited from earlier work
[4] = tested on: Epidermal Langerhans' cells; experiment: Staining of epidermal Langerhans' cells (I-A antigen) after perfume exposure; format: in vivo, mouse
Procedure: Female C57 BL/6 mice (aged 7-9 weeks) were used. Each group of five animals were placed in a cage (225×335×140 mm) and kept in a chamber maintained at a temperature of 21-25° C. and a relative humidity of 40-70%. The inhalation of a perfume into the animals was carried out by placing a Petri dish having a diameter of 10 cm in the cage, putting therein a filter paper impregnated with the perfume, and covering the dish with wire netting. (A filter paper impregnated with no perfume was used for a control group.) This animal experiment followed the National Research Council Guidelines. Epidermal Langerhans' cells were stained according to the well-known method. In brief, an ear of a mouse was incubated in a 3.8% aqueous solution of ammonium thioisocyanate at 37° C. for 20 minutes to separate the epidermis from the corium. The epidermal sheet was fixed with acetone and incubated in the culture supernatant of mouse hybridoma M5/114.15.2 (American Tissue Type Collection, Rockville, Md., USA) so as to cause the secretion of anti-I-A IgG. Then, the anti-I-A IgG was combined with fluorescein isothiocyanate (FITC) (Sigma, USA)-labeled anti-mouse IgG antibody. Cells positive for the I-A antigen were observed under a confocal laser scanning microscope (MRC600; Bio Rad, USA) and analyzed. Samples were collected from each group of five mice. Three regions of each sample were analyzed by a blind test.

[5] = tested on: Langerhans' cells in the epidermis; experiment: Staining of Langerhans' cells after stress imposition with perfume inhalation; format: in vivo, mice; settings: DMMB at the time of stress imposition, FIG. 5
Procedure: Epidermal Langerhans' cells were stained according to the well-known method. In brief, an ear of a mouse was incubated in a 3.8% aqueous solution of ammonium thioisocyanate at 37° C. for 20 minutes to separate the epidermis from the corium. The epidermal sheet was fixed with acetone and incubated in the culture supernatant of mouse hybridoma M5/114.15.2 (American Tissue Type Collection, Rockville, Md., USA) so as to cause the secretion of anti-I-A IgG. Then, the anti-I-A IgG was combined with fluorescein isothiocyanate (FITC) (Sigma, USA)-labeled anti-mouse IgG antibody. Cells positive for the I-A antigen were observed under a confocal laser scanning microscope (MRC600; Bio Rad, USA) and analyzed. Samples were collected from each group of five mice. Three regions of each sample were analyzed by a blind test.
Female C57 BL/6 mice (aged 7-9 weeks) (purchased from Charles River Japan) were used. Each group of five animals were placed in a cage (225×335×140 mm) and kept in a chamber maintained at a temperature of 21-25° C. and a relative humidity of 40-70%. The inhalation of a perfume into the animals was carried out by placing a Petri dish having a diameter of 10 cm in the cage, putting therein a filter paper impregnated with the perfume, and covering the dish with wire netting. […]

[6] = tested on: contact hypersensitivity reaction; experiment: CH reaction under restraint stress with perfume inhalation; format: in vivo, mice; settings: for Swelling: DMMB inhalation, individual animals, right ear minus left ear thickness; for Average (swelling): DMMB, average of 5 values of Table III (1), given there in × 0.01 mm
Procedure: Female C57 BL/6 mice (aged 7-9 weeks) (purchased from Charles River Japan) were used. Each group of five animals were placed in a cage (225×335×140 mm) and kept in a chamber maintained at a temperature of 21-25° C. and a relative humidity of 40-70%. The inhalation of a perfume into the animals was carried out by placing a Petri dish having a diameter of 10 cm in the cage, putting therein a filter paper impregnated with the perfume, and covering the dish with wire netting. (A filter paper impregnated with no perfume was used for a control group.) These animals were laid in a prone position and wrapped in a pliable fine-meshed wire net for 6 hours. This animal experiment gained the approval of the animal experimentation committee of our company following the National Research Council Guidelines.
Mice were sensitized by applying 2,4,6-trinitrochlorobenzene (TNCB) (10 μl of a 3% acetone solution) to the inner and outer surfaces of the left ear of each mouse. After 5 days, a CH reaction was provoked by applying TNCB (5 μl of a 1% acetone solution) to the inner and outer surfaces of the right ear of each mouse. After 24 hours, the swelling was evaluated by measuring the thicknesses of both ears with a micrometer (manufactured by Mitsutoyo) and subtracting the thickness of the left ear from that of the right ear. The exposure of the animals to a perfume was continued over a period of time extending from 24 hours before provocation to the measurement of the swelling. The restraint stress was imposed 24 hours before provocation and repeated immediately after provocation. This experiment was carried out by using the animals in groups of five and using 1,3-dimethoxy-5-methylbenzene (DMMB; purchased from Takasago International Inc.) as the perfume.
The values given in Table III, (1) are values obtained by subtracting the measured thickness of the left ear of each test animal from that of the right ear thereof.

[7] = Table I, after exposure to citralva, SD in parentheses
[8] = Table II, animals kept in the presence of citralva or lyral/lilial, SD in parentheses

SMILES: CC(C)=CCCC(C)=CC#N [citralva, 3,7-dimethyl-2,6-octadienenitrile]
- adenylate cyclase activation (adenylate cyclase [1]): activates adenylate cyclase
- influence of topical application on the CH reaction ([2]; direct application to the skin, 50 μl of 0.1% or 1% perfume, FIG. 3): neither citralva nor lyral/lilial exerts an influence on the CH reaction
- suppression of the induction of the CH reaction ([2]; inhalation, exposure for 2 days at the time of induction (day 0 to day 2), FIG. 1 B): about 20%
- suppression of the provocation of the CH reaction ([2]; inhalation, exposure for 2 days at the time of provocation (day 5 to day 7), compared with controls, FIG. 1 A): about 50%
- effect on CH reaction, citralva compared with lyral/lilial ([2]; perfume inhalation, FIG. 2): significantly more powerful than that of lyral/lilial
- effect on the provocation of a CH reaction ([2]; perfume inhalation, FIG. 2): suppress the CH reaction
- adenylate cyclase activation (adenylate cyclase [3]): activates adenylate cyclase
- Area per cell [4, 7]: 172.0 (78.3) μm^2
- Intensity of I-A [4, 7]: 89.9 (2.9)
- Number of LC [4, 7]: 119.8 (15.0) per mm^2
- Number of dendrites [4, 7]: 4.40 (0.92)
- effect on Langerhans' cells, comparison of perfumes ([4]; Table II): more powerful effect than lyral/lilial
- Intensity of I-A [4, 8]: 84.9 (3.1)
- Number of dendrites [4, 8]: 2.56 (0.12)
- change in number of LC ([4]; after exposure to citralva, versus control (Table I)): significantly decreased
- change in area of each I-A-positive cell ([4]; exposure to citralva, versus control): significantly reduced

SMILES: COc1cc(C)cc(OC)c1 [DMMB, 1,3-dimethoxy-5-methylbenzene]
- number of Langerhans' cells ([5]; compared with group without stress imposition): of the same order
- number of Langerhans' cells ([5]; compared with stress imposition alone): significantly increased
- Swelling ([6]; Restrained): 17 × 0.01 mm (2×) and 18 × 0.01 mm and 15 × 0.01 mm and 14 × 0.01 mm
- Average (swelling) ([6]; Restrained): 16.2
- Swelling ([6]; Unrestrained): 17 × 0.01 mm (2×) and 16 × 0.01 mm (2×) and 13 × 0.01 mm
- Average (swelling) ([6]; Unrestrained): 15.38
- suppression of the skin immune reaction by stress ([6]; animal group having undergone DMMB inhalation, Table III, FIG. 4): not observed

Source: patent publication US20050287232A1, “Skin immune function controlling agents” (priority 1999, published 2005)
